Results as given in patent US9777017B2, “Tricyclic fused thiophene derivatives as JAK inhibitors” (Incyte Corporation, priority 2012, dated 2017).

Legend:
Assay type in all cases: biochemical
[1] = target: human JAK2 (Homo sapiens (Human), UniProt O60674); assay: In vitro JAK kinase assay (HTRF, phosphorylation of a biotinylated peptide), JAK2; parameters: key to JAK2 IC50 (nM): +indicates an IC50 of ≦100 nM; ++indicates an IC50 of ≦1000 nM; +++indicates an IC50 of ≦2000 nM; ++++indicates an IC50 of >2000 nM; +++++indicates that the IC50 was greater than the highest concentration tested; details: 1 mM ATP
Procedure: (§1) Compounds herein were tested for inhibitory activity of JAK targets according to the following in vitro assay described in Park et al., Analytical Biochemistry 1999, 269, 94-104. The catalytic domains of human JAK1 (a.a. 837-1142), JAK2 (a.a. 828-1132) and JAK3 (a.a. 781-1124) were expressed using baculovirus in insect cells and purified. The catalytic activity of JAK1, JAK2 or JAK3 was assayed by measuring the phosphorylation of a biotinylated peptide. The phosphorylated peptide was detected by homogenous time resolved fluorescence (HTRF). IC50s of compounds were measured for each kinase in the 40 μL reactions that contain the enzyme, ATP and 500 nM peptide in 50 mM Tris (pH 7.8) buffer with 100 mM NaCl, 5 mM DTT, and 0.1 mg/mL (0.01%) BSA. For the 1 mM IC50 measurements, ATP concentration in the reactions was 1 mM. Reactions were carried out at room temperature for 1 hour and then stopped with 20 μL 45 mM EDTA, 300 nM SA-APC, 6 nM Eu-Py20 in assay buffer (Perkin Elmer, Boston, Mass.). Binding to the Europium labeled antibody took place for 40 minutes and HTRF signal was measured on a PHERA star plate reader (BMG, Cary, N.C.). The Example compounds were each tested in the Example A assay (see Table 1 for data for the compounds of the examples as tested by the assay of Example A at 1 mM ATP).

[2] = system: human JAK1; assay: In vitro JAK kinase assay (HTRF, phosphorylation of a biotinylated peptide), JAK1; details: ratio of IC50s, 1 mM ATP
Procedure: as §1

[3] = target: human JAK1 (Homo sapiens, UniProt P23458); assay: as above; details: 1 mM ATP
Procedure: as §1

Chain of human JAK2 (O60674 828-1132): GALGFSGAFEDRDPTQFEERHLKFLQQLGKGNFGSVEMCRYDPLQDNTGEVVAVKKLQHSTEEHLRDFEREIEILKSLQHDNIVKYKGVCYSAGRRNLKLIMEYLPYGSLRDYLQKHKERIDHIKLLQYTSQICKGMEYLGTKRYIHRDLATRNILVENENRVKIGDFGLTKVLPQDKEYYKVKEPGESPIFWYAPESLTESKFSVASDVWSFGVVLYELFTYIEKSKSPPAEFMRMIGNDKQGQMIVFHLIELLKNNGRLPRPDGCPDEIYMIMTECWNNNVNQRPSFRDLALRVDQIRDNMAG

Row | Compound | IC50 [1] [µM] | JAK2/JAK1 [2] | IC50 [3] [µM] | JAK2 IC50 (nM) [1]
1 | C[C@@H](O)c1nc2cnc3ccsc3c2n1[C@H]1CC[C@H](CNC(=O)N(C)C)CC1 [Example 81, N′-[(trans-4-{2-[(1R)-1-Hydroxyethyl]-1H-imidazo[4,5-d]thieno[3,2-b]pyridin-1-yl}cyclohexyl)methyl]-N,N-dimethylurea] | > 2 | >10 | ≤ 0.1 | –
2 | CS(=O)(=O)NCc1nc2cnc3ccsc3c2n1[C@H]1CC[C@H](CC#N)CC1 [Example 18, N-({1-[trans-4-(Cyanomethyl)cyclohexyl]-1H-imidazo[4,5-d]thieno[3,2-b]pyridin-2-yl}methyl)methanesulfonamide] | ≤ 1 | >10 | ≤ 0.1 | –
3 | N#CC[C@H]1CC[C@H](n2c(C3CC3)nc3cnc4ccsc4c32)CC1 [Example 26, [trans-4-(2-Cyclopropyl-1H-imidazo[4,5-b]thieno[3,2-b]pyridin-1-yl)cyclohexyl]acetonitrile] | ≤ 1 | >10 | ≤ 0.1 | –
4 | C[C@@H](O)c1nc2cnc3ccsc3c2n1[C@H]1CC[C@H](CO)CC1 [Example 11, (1R)-1-{1-[trans-4-(Hydroxymethyl)cyclohexyl]-1H-imidazo[4,5-d]thieno[3,2-b]pyridin-2-yl}ethanol] | – | >10 | ≤ 0.1 | +++++
5 | C[C@@H](O)c1nc2cnc3ccsc3c2n1[C@H]1CCCN(C(=O)CCc2ccccc2)C1 [Example 57] | > 2 | >10 | ≤ 0.1 | –
6 | C[C@@H](O)c1nc2cnc3ccsc3c2n1[C@H]1CCCN(CCC#N)C1 [Example 56, 3-((3S)-3-{2-[(1R)-1-Hydroxyethyl]-1H-imidazo[4,5-d]thieno[3,2-b]pyridin-1-yl}piperidin-1-yl)propanenitrile] | – | >10 | ≤ 1 | +++++
7 | CC(C)c1nc2cnc3ccsc3c2n1[C@H]1CC[C@H](CC#N)OC1 [Example 42, [(2R,5S)-5-(2-Isopropyl-1H-imidazo[4,5-d]thieno[3,2-b]pyridin-1-yl)tetrahydro-2H-pyran-2-yl]acetonitrile] | ≤ 1 | >10 | ≤ 0.1 | –
8 | CS(=O)(=O)NCc1nc2cnc3ccsc3c2n1[C@H]1CC2CCC1C2 (stereo partly drawn) [Example 22, N-((1-((2S)-Bicyclo[2.2.1]heptan-2-yl)-1H-imidazo[4,5-d]thieno[3,2-b]pyridin-2-yl)methyl)methanesulfonamide] | – | >4 | ≤ 1 | +++++
9 | C[C@@H](O)c1nc2cnc3ccsc3c2n1[C@H]1CC[C@H](CNS(C)(=O)=O)CC1 [Example 80, N-[(trans-4-{2-[(1R)-1-Hydroxyethyl]-1H-imidazo[4,5-d]thieno[3,2-b]pyridin-1-yl}cyclohexyl)methyl]methanesulfonamide] | ≤ 2 | >10 | ≤ 0.1 | –
10 | [(1R,2S,4S)-4-(2-Ethyl-1H-imidazo[4,5-d]thieno[3,2-b]pyridin-1-yl)-2-hydroxycyclohexyl]acetonitrile and [(1S,2R,4R)-4-(2-ethyl-1H-imidazo[4,5-d]thieno[3,2-b]pyridin-1-yl)-2-hydroxycyclohexyl]acetonitrile [40 (first peak)] | ≤ 1 | >10 | ≤ 0.1 | –
11 | C[C@@H](O)c1nc2cnc3ccsc3c2n1[C@H]1CC[C@H](CF)CC1 [Example 12, (1R)-1-{1-[trans-4-(Fluoromethyl)cyclohexyl]-1H-imidazo[4,5-d]thieno[3,2-b]pyridin-2-yl}ethanol] | ≤ 2 | >10 | ≤ 0.1 | –
12 | CC(C)OC(=O)NC[C@H]1CC[C@H](n2c([C@@H](C)O)nc3cnc4ccsc4c32)CO1 [Example 76, Isopropyl [((2R,5S)-5-{2-[(1R)-1-hydroxyethyl]-1H-imidazo[4,5-d]thieno[3,2-b]pyridin-1-yl}tetrahydro-2H-pyran-2-yl)methyl]carbamate] | ≤ 2 | >10 | ≤ 0.1 | –
13 | C[C@@H](O)c1nc2cnc3ccsc3c2n1C1CCCC(CCC#N)C1 (stereo partly drawn) [Example 32, 3-(3-{2-[(1R)-1-Hydroxyethyl]-1H-imidazo[4,5-d]thieno[3,2-b]pyridin-1-yl}cyclohexyl)propanenitrile] | > 2 | >10 | ≤ 0.1 | –
14 | CC(C)OC(=O)NC[C@H]1CC[C@H](n2c(CC#N)nc3cnc4ccsc4c32)CC1 [Example 88, Isopropyl ({trans-4-[2-(cyanomethyl)-1H-imidazo[4,5-d]thieno[3,2-b]pyridin-1-yl]cyclohexyl}methyl)carbamate] | – | >10 | ≤ 0.1 | +++++
15 | N#CC[C@H]1CC[C@H](n2c(C3CNC3)nc3cnc4ccsc4c32)CC1 [Example 28, [trans-4-(2-Azetidin-3-yl-1H-imidazo[4,5-d]thieno[3,2-b]pyridin-1-yl)cyclohexyl]acetonitrile] | – | >7 | ≤ 2 | +++++
16 | N#CC[C@H]1CC[C@H](n2c(C3CC3)nc3cnc4ccsc4c32)CO1 [Example 43, [(2R,5S)-5-(2-Cyclopropyl-1H-imidazo[4,5-d]thieno[3,2-b]pyridin-1-yl)tetrahydro-2H-pyran-2-yl]acetonitrile] | ≤ 1 | >10 | ≤ 0.1 | –
17 | C[C@@H](O)c1nc2cnc3ccsc3c2n1[C@H]1CCCN(C(=O)CCCC#N)C1 [Example 59, 5-((3S)-3-{2-[(1R)-1-Hydroxyethyl]-1H-imidazo[4,5-d]thieno[3,2-b]pyridin-1-yl}piperidin-1-yl)-5-oxopentanenitrile] | – | >10 | ≤ 1 | +++++
18 | C[C@@H](O)c1nc2cnc3ccsc3c2n1[C@H]1CCN(CCC#N)C1 [Example 62, 3-((3S)-3-{2-[(1R)-1-Hydroxyethyl]-1H-imidazo[4,5-d]thieno[3,2-b]pyridin-1-yl}pyrrolidin-1-yl)propanenitrile] | > 2 | >10 | ≤ 1 | –
19 | C[C@@H](O)c1nc2cnc3ccsc3c2n1[C@H]1CCCN(C(=O)CCc2cn[nH]c2)C1 [Example 53, (1R)-1-(1-{(3S)-1-[3-(1H-Pyrazol-4-yl)propanoyl]piperidin-3-yl}-1H-imidazo[4,5-d]thieno[3,2-b]pyridin-2-yl)ethanol] | – | >10 | ≤ 1 | +++++
20 | Cc1nc2cnc3ccsc3c2n1[C@H]1CC[C@H](CC#N)OC1 [Example 38, [(2R,5S)-5-(2-Methyl-1H-imidazo[4,5-d]thieno[3,2-b]pyridin-1-yl)tetrahydro-2H-pyran-2-yl]acetonitrile] | ≤ 0.1 | >10 | ≤ 0.1 | –
21 | C[C@@H](O)c1cc2cnc3ccsc3c2n1[C@H]1CC[C@H](CC#N)CC1 [Example 23, (trans-4-{7-[(1R)-1-Hydroxyethyl]-8H-pyrrolo[2,3-d]thieno[3,2-b]pyridin-8-yl}cyclohexyl)acetonitrile] | ≤ 1 | >10 | ≤ 0.1 | –
22 | C[C@@H](O)c1nc2cnc3ccsc3c2n1[C@H]1CC[C@H](CC#N)OC1 [Example 20, ((2R,5S)-5-{2-[(1R)-1-Hydroxyethyl]-1H-imidazo[4,5-d]thieno[3,2-b]pyridin-1-yl}tetrahydro-2H-pyran-2-yl)acetonitrile] | ≤ 1 | >10 | ≤ 0.1 | –
23 | CC(C)OC(=O)NC[C@H]1CC[C@H](n2c([C@@H](C)O)nc3cnc4ccsc4c32)CC1 [Example 84, Isopropyl [(trans-4-{2-[(1R)-1-hydroxyethyl]-1H-imidazo[4,5-d]thieno[3,2-b]pyridin-1-yl}cyclohexyl)methyl]carbamate] | ≤ 1 | >10 | ≤ 0.1 | –
24 | C[C@@H](O)c1nc2cnc3ccsc3c2n1C1CCN(CCC#N)CC1 [Example 16, 3-(4-{2-[(1R)-1-Hydroxyethyl]-1H-imidazo[4,5-d]thieno[3,2-b]pyridin-1-yl}piperidin-1-yl)propanenitrile] | > 2 | >10 | ≤ 1 | –
25 | C[C@@H](O)c1nc2cnc3ccsc3c2n1[C@H]1CC[C@H](CC#N)CC1.Cl [Example 10, (trans-4-{2-[(1R)-1-Hydroxyethyl]-1H-imidazo[4,5-d]thieno[3,2-b]pyridin-1-yl}cyclohexyl)acetonitrile HCl salt] | ≤ 1 | >10 | ≤ 0.1 | –
